Source: US20190292603A1, “METHOD FOR PREDICTING THE RESPONSIVENESS OF A PATIENT TO A TREATMENT WITH mTOR INHIBITORS” (INSTITUT NATIONAL DE LA SANTE ET DE LA RECHERCHE MEDICALE, priority 2018, published 2019)

Tested on: Eμ-Myc-GAPDHlow lymphoma
Assay: Survival of OxPhos Eμ-Myc-GAPDHlow-bearing mice treated with Temsirolimus in vivo
Conditions: data not shown

CO[C@H]1C[C@@H]2CC[C@@H](C)[C@@](O)(O2)C(=O)C(=O)N2CCCC[C@H]2C(=O)O[C@H]([C@H](C)C[C@@H]2CC[C@@H](OC(=O)C(C)(CO)CO)[C@H](OC)C2)CC(=O)[C@H](C)/C=C(\C)[C@@H](O)[C@@H](OC)C(=O)[C@H](C)C[C@H](C)/C=C/C=C/C=C/1C [Temsirolimus]
survival: significantly increases
